{
  "source": "patent US20240408114A1",
  "about": "“METHODS FOR PREVENTING AND TREATING ACUTE KIDNEY INJURY” (The Johns Hopkins University, priority 2021, published 2024)",
  "key": {"kidney T cells [1]": {"tested_on": "kidney T cells", "assay": "T cells from post-cisplatin AKI kidneys, spectral flow cytometry", "format": "in vivo, mouse", "protocol": "Given the significant protective outcomes in ischemic AKI, we subsequently tested the effect of glutamine blockade on a nephrotoxic AKI model, which is another common etiology of clinical AKI. After pretreatment with JHU083 or vehicle, 25 mg/kg of cisplatin was injected intraperitoneally. T cells were isolated and studied after 72 h after cisplatin treatment (FIG. 16A).\nKMNCs were isolated according to our previously described Percoll density gradient protocol. Ascon et al., 2006. Briefly, decapsulated kidneys were immersed and incubated in collagenase D (2 mg/mL; Sigma-Aldrich) solution for 30 min at 37° C. Samples were strained through 70 µm cell strainer (BD Bioscience, Franklin Lakes, NJ), washed, and resuspended in 40% Percoll (GE Healthcare, Chicago, IL) followed by gentle overlaying onto 80% Percoll. After centrifugation at 1,500 g for 30 min in brake off mode at room temperature, KMNCs were collected from interface between 40% and 80% Percoll. Spleens were strained through 40 µm cell strainer (BD Bioscience) and incubated with ammonium-chloride-potassium lysis buffer (Quality Biological, Gaithersburg, MD) for 3 min. Collected cells were washed and resuspended with Roswell Park Memorial Institute (RPMI) 1640 media (Thermo Fisher Scientific, Waltham, MA) containing 5% fetal bovine serum (FBS, Thermo Fisher Scientific). Cells were counted on hemocytometer using trypan blue exclusion under a microscope.\nCells were washed once with phosphate buffered saline (PBS) and stained with viability dye Zombie NIR Fixable Viability (BioLegend, San Diego, CA) for 15 min at room temperature. After washing with Cell Staining Buffer (BioLegend), cells were preincubated with anti-CD16/CD32 Fc receptor blocking antibody (S17011E, BioLegend) for 15 min to prevent nonspecific antibody binding. Subsequently, surface staining was performed in 50 μL of BD horizon™ Brilliant Stain buffer and surface staining antibody cocktail for 30 min at 4° C.: Pacific blue anti-CD44 (IM7, BioLegend), BV510 anti-CD8 (53-6.7, BioLegend), BV570 anti-CD45 (30-F11, BioLegend), BV605 anti-CD69 (H1.2F3, BioLegend), BV650 anti-NK1.1 (PK136, BioLegend), BV711 anti-PD1 (29F.1A12, BioLegend), BV785 anti-TCRβ (H57-597, BioLegend), PE-Cy5.5 anti-CD25 (PC61.5, Thermo Fisher Scientific), APC-R700 anti-CD62L (MEL-14, BD Bioscience), and APC-Fire810 anti-CD4 (GK1.5, BioLegend). Cells were fixed and permeabilized with Foxp3/Transcription Factor Staining kit (Thermo Fisher Scientific) for 30 min at room temperature and washed with permeabilization/wash buffer (Thermo Fisher Scientific). Intracellular staining was conducted in 50 μL of permeabilization/wash buffer with intracellular staining antibody cocktail for 45 min at room temperature: BV421 anti-Ki67 (16A8, BioLegend), Alexa Fluor 488 anti-CPT1a (8F6AE9, Abcam, Cambridge, UK), Alexa Fluor 532 anti-VDAC1 (20B12AF2, Abcam), PerCP-efluor 710 anti-FoxP3 (FJK-16S, Thermo Fisher Scientific), PE anti-GLUT1 (EPR3915, Abcam), Alexa Fluor 594 anti-pS6 (D68F8, Cell Signaling, Danvers, MA), PE-Cy5 anti-HKII (EPR20839, Abcam), PE-Cy7 anti-H3K27me3 (C36B11, Cell Signaling), and Alexa Fluor 647 anti-Tomm20 (EPR15581-54, Abcam). After staining, cells were washed with permeabilization/wash buffer then resuspended in Cell Staining Buffer. Samples were analyzed by 4-laser Aurora spectral flow cytometer (Cytek, Fremont, CA).\nGlutamine antagonist, JHU083 was synthesized as previously described, Rais et al., 2016, and dissolved in 50 mM […] 4-(2-hydroxyethyl)-1-piperazineethanesulfonic acid (HEPES) buffered 0.9% saline. Aliquot stocks were stored at −80° C. and thawed right before injection. Before the IRI surgery or cisplatin injection, mice were administered 1.83 mg/kg JHU083 (equivalent to 1 mg/kg DON) or vehicle (50 mM HEPES buffered 0.9% saline) every other day via intraperitoneal injection. Following 4 consecutive dosages, mice underwent IRI surgery or cisplatin injection. […]"}, "kidney T cells [2]": {"tested_on": "kidney T cells", "assay": "T cell phenotypes in normal steady-state kidneys", "format": "in vivo, mouse", "settings": "normal mice, same dosage schedule; vs vehicle", "protocol": "To test whether this immunologic effect was derived from the glutamine blockade or attenuated kidney injury, we studied normal mice treated with JHU083 or vehicle with the same dosage schedule. […] Therefore, changes seen in these markers in post-ischemic kidneys are likely through JHU083-mediated glutamine blockade.\nKMNCs were isolated according to our previously described Percoll density gradient protocol. Ascon et al., 2006. Briefly, decapsulated kidneys were immersed and incubated in collagenase D (2 mg/mL; Sigma-Aldrich) solution for 30 min at 37° C. Samples were strained through 70 µm cell strainer (BD Bioscience, Franklin Lakes, NJ), washed, and resuspended in 40% Percoll (GE Healthcare, Chicago, IL) followed by gentle overlaying onto 80% Percoll. After centrifugation at 1,500 g for 30 min in brake off mode at room temperature, KMNCs were collected from interface between 40% and 80% Percoll. […] Cells were counted on hemocytometer using trypan blue exclusion under a microscope.\nCells were washed once with phosphate buffered saline (PBS) and stained with viability dye Zombie NIR Fixable Viability (BioLegend, San Diego, CA) for 15 min at room temperature. […] Samples were analyzed by 4-laser Aurora spectral flow cytometer (Cytek, Fremont, CA). […]"}, "[3]": {"settings": "1.83 mg/kg every other day i.p.; even with a longer duration of treatment; cited from earlier work"}, "[4]": {"settings": "post-cisplatin AKI kidneys, vehicle 21.4±2.7, P=0.001"}},
  "data": [
    {"smiles": "CCOC(=O)[C@H](CCC(=O)C=[N+]=[N-])NC(=O)[C@@H](N)CC(C)C", "note": "[JHU083]", "values": [
      {"measurement": "CD69 expression in CD4+, CD8+, and DN T cells", "setting": "kidney T cells [1]; cisplatin AKI, FIG. 17C", "result": "reduced"},
      {"measurement": "CD69+ among kidney CD8+ T cells", "setting": "kidney T cells [1]; [4]", "result": "9.8±1.5", "unit": "%"},
      {"measurement": "Ki67+ among kidney CD8+ T cells", "setting": "kidney T cells [1]; [4]", "result": "9.8±1.5", "unit": "%"},
      {"measurement": "Ki67+ among kidney CD4+ T cells", "setting": "kidney T cells [1]; post-cisplatin AKI kidneys, vehicle 37.0±2.9, P=0.003", "result": "25.4±1.8"},
      {"measurement": "CD69+ among kidney CD4+ T cells", "setting": "kidney T cells [1]; post-cisplatin AKI kidneys, vehicle 37.0±2.9, P=0.014", "result": "25.4±1.8", "unit": "%"},
      {"measurement": "CD62L+ among kidney CD4+ T cells", "setting": "kidney T cells [1]; post-cisplatin AKI kidneys, vehicle 37.5±3.2", "result": "52.5±3.0", "unit": "%"},
      {"measurement": "CD44+ among kidney CD8+ T cells", "setting": "kidney T cells [1]; post-cisplatin AKI kidneys, vehicle 43.3±3.3, P<0.001", "result": "26.4±2.3", "unit": "%"},
      {"measurement": "CD62L+ among kidney CD8+ T cells", "setting": "kidney T cells [1]; post-cisplatin AKI kidneys, vehicle 48.9±4.2, P<0.001", "result": "76.0±2.3", "unit": "%"},
      {"measurement": "CD44+ among kidney CD4+ T cells", "setting": "kidney T cells [1]; post-cisplatin AKI kidneys, vehicle 50.2±3.4, P=0.037", "result": "40.9±2.4", "unit": "%"},
      {"measurement": "phenotype of CD4+ and CD8+ T cells in steady-state kidneys", "setting": "kidney T cells [2]", "result": "skewed toward naïve phenotypes with lower CD69, CD44, and Ki67 and higher CD62L"},
      {"measurement": "tolerability of dosage regimen", "setting": "[3]", "result": "tolerable without significant toxicity"}
    ]}
  ]
}
